Source: patent publication US12458605B2, “Lipid nanoparticle” (National University Corporation Hokkaido University, priority 2020, dated 2025)

What was measured:
[1] = Average particle size (ζ-Average) and PDI by dynamic light scattering (Zetasizer Nano ZSP); assay type: physicochemical
Procedure, shortened: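 Lipid nanoparticles dispersed in PBS(−) were sized by dynamic light scattering, giving the ζ-Average diameter and polydispersity index (PDI).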

[2] = siRNA/mRNA encapsulation rate by Ribogreen reagent (section IV); assay type: physicochemical; settings: for % siRNA encapsulation: F7siRNA-loaded LNP, 50:10:38.5:1.5, N/P ratio 6; for % mRNA encapsulation: FlucmRNA-loaded LNP, 50:10:38.5:1.5
Procedure, shortened: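 LNPs diluted in TE buffer to 8 μg/mL nucleic acid for surface RNA, or to 1.2 μg/mL with 1% Triton X-100 for total RNA. RiboGreen fluorescence (ex 485/em 528 nm) quantified against a Triton-containing standard curve (0-2.5 μg/mL). Encapsulation % = (total − surface)/total × 100.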

liver = assay: In vivo Fluc activity of FlucmRNA-loaded LNP by in vivo imaging, liver; settings: Balb/c mice, 6 hours; for Fluc Activity in liver: FlucmRNA-loaded LNP i.v. 0.1 mg mRNA/kg
Procedure, shortened: (§1)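 Female Balb/c mice, 7 weeks old, received LNP i.v. at 0.1 mg mRNA/kg. At 6 h, luciferin was given via tail vein at 1.5 mg per mouse, and liver and spleen luminescence was imaged as Avg Radiance [p/s/cm2/sr] near 560 nm.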

spleen = assay: In vivo Fluc activity of FlucmRNA-loaded LNP by in vivo imaging, spleen; settings: Balb/c mice, 6 hours; for Fluc Activity in spleen: FlucmRNA-loaded LNP i.v. 0.1 mg mRNA/kg; for Fluc activity in the spleen, compared with CL15F6: 0.1 mg mRNA/kg, versus LNP comprising CL15F6 (Table 7)
Procedure, shortened: as §1

F7 = assay: In vivo F7 knockdown, plasma F7 enzyme activity (BIOPHEN FVII), Balb/c mice; settings: for F7 enzyme activity (Ratio using MC3 as 1): relative plasma F7 activity of MC3 LNP as 1
Procedure, shortened: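 Female Balb/c mice, 5 weeks old, received F7 siRNA lipid nanoparticles i.v. at 0.025 mg siRNA/kg; plasma F7 activity measured chromogenically (BIOPHEN FVII) 24 h later. Values are % of untreated mice, also expressed as a ratio to MC3-containing nanoparticles set at 1.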

[3] = Storage stability of FlucmRNA-loaded LNP at −80, 5, 25 and 40° C.; assay type: physicochemical; settings: for quality at production (storage stability criteria): criteria: PDI 0.2 or less, encapsulation 80% or more; for period for which quality remained good, −80° C.: maximum storage period 1 week; for period for which quality remained good, 5° C. / period for which quality remained good, 25° C. / period for which quality remained good, 40° C. (weeks): maximum storage period 5 weeks
Procedure, shortened: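 FlucmRNA-loaded LNPs held at −80, 5, 25 or 40° C; at each time point size, PDI and encapsulation measured. Quality deemed maintained while size stays within ±20 nm of preparation day, PDI ≤0.2 and encapsulation ≥80%; value is the period meeting all three.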

[4] = F7siRNA-loaded LNP, 50:10:38.5:1.5, N/P ratio 6
[5] = FlucmRNA-loaded LNP, 50:10:38.5:1.5
[6] = FlucmRNA-loaded LNP, lipid:DSPC:cholesterol:DMG-PEG2K 50:10:38.5:1.5
[7] = i.v. 0.025 mg siRNA/kg, plasma at 24 hours

Row | Compound | PDI [1, 4] | ζ-Average (nm) [1, 4] [nm] | PDI [1, 5] | ζ-Average (nm) [1, 6] [nm] | % siRNA encapsulation [2] [%] | % mRNA encapsulation [2] [%] | Fluc Activity in liver (liver) | Fluc Activity in spleen (spleen) | F7 enzyme activity (%) (F7; i.v. 0.025 mg siRNA/kg, plasma at 24 hours, untreated mice as 100%) | quality at production (storage stability criteria) [3] | Fluc activity in the spleen, compared with CL15F6 (spleen) | F7 enzyme activity (Ratio using MC3 as 1) (F7; [7]) | period for which quality remained good, −80° C. [3] [week] | period for which quality remained good, 5° C. [3] [weeks] | period for which quality remained good, 25° C. [3] [weeks] | period for which quality remained good, 40° C. (weeks) [3] [weeks] | Fluc activity in the liver, compared with CL15F6 (liver; 0.1 mg mRNA/kg, versus LNP comprising CL15F6 (Table 7)) | knockdown activity, compared with MC3 (F7; F7siRNA-loaded LNP, versus LNP comprising MC3)
1 | CCCCCCCCCCCCCCC(C)C(=O)OCCCCCCC(O)(CCCCCCOC(=O)C(C)CCCCCCCCCCCCCC)CCCCN(CCC)CCC (stereo not drawn) [CL4F 16-1] | 0.092 | 64.81 | 0.045 | 69.08 | 94.9 | 65.9 | 8.52E+06 Avg Radiance [p/s/cm2/sr] | 1.93E+06 Avg Radiance [p/s/cm2/sr] | 103.6 | Does not meet the criteria for “good” at production |  |  |  |  |  |  |  | 
2 | CCCCC(CCCC)C(=O)OCCCCCCC(O)(CCCCCCOC(=O)C(CCCC)CCCC)CCCCOC(=O)C1CCN(C)CC1 [CL15F 6-4] | 0.255 | 230.7 | 0.316 | 312.10 | 91.5 | 66.7 | 1.84E+06 Avg Radiance [p/s/cm2/sr] | 3.39E+07 Avg Radiance [p/s/cm2/sr] |  | Does not meet the criteria for “good” at production | higher Fluc activity | 2.28 |  |  |  |  |  | 
3 | CCCCCC(CCC)C(=O)OCCCCCCC(O)(CCCCCCOC(=O)C(CCC)CCCCC)CCCCOC(=O)C1CCN(C)CC1 (stereo not drawn) [CL15F 7-3] | 0.398 | 287.9 | 0.369 | 370.30 | 95.7 | 64.2 | 5.34E+06 Avg Radiance [p/s/cm2/sr] | 1.48E+07 Avg Radiance [p/s/cm2/sr] |  | Does not meet the criteria for “good” at production | higher Fluc activity | 2.08 |  |  |  |  |  | 
4 | CCCCCC(CCCCC)C(=O)OCCCCCCC(O)(CCCCCCOC(=O)C(CCCCC)CCCCC)CCCCOC(=O)C1CCN(C)CC1 [CL15F 7-5] | 0.039 | 180.6 | 0.007 | 196.00 | 98.8 | 97.6 | 2.15E+06 Avg Radiance [p/s/cm2/sr] | 1.37E+07 Avg Radiance [p/s/cm2/sr] |  |  | higher Fluc activity | 1.74 | 0 | 5 | 5 | 5 |  | 
5 | CCCCCCC(CCCCCC)C(=O)OCCCCCCC(O)(CCCCCCOC(=O)C(CCCCCC)CCCCCC)CCCCOC(=O)C1CCN(C)CC1 [CL15F 8-6] | 0.056 | 121.2 | 0.011 | 132.00 | 100.2 | 99.2 | 1.92E+06 Avg Radiance [p/s/cm2/sr] | 5.02E+06 Avg Radiance [p/s/cm2/sr] |  |  |  | 1.60 | 1 | 5 | 5 | 5 |  | 
6 | CCCCCCCC(CCC)C(=O)OCCCCCCC(O)(CCCCCCOC(=O)C(CCC)CCCCCCC)CCCCOC(=O)C1CCN(C)CC1 (stereo not drawn) [CL15F 9-3] | 0.172 | 200.4 | 0.044 | 196.80 | 98.3 | 95.5 | 1.16E+06 Avg Radiance [p/s/cm2/sr] | 7.47E+06 Avg Radiance [p/s/cm2/sr] |  |  | higher Fluc activity | 1.50 | 0 | 5 | 5 | 5 |  | 
7 | CCCCCCCC(CCCCC)C(=O)OCCCCCCC(O)(CCCCCCOC(=O)C(CCCCC)CCCCCCC)CCCCOC(=O)C1CCN(C)CC1 (stereo not drawn) [CL15F 9-5] | 0.035 | 129.5 | 0.037 | 135.00 | 100.1 | 99.1 | 1.86E+06 Avg Radiance [p/s/cm2/sr] | 5.77E+06 Avg Radiance [p/s/cm2/sr] |  |  | higher Fluc activity | 1.11 | 1 | 5 | 5 | 5 |  | 
8 | CCCCCCCC(CCCCCCC)C(=O)OCCCCCCC(O)(CCCCCCOC(=O)C(CCCCCCC)CCCCCCC)CCCCOC(=O)C1CCN(C)CC1 [CL15F 9-7] | 0.023 | 103.1 | 0.010 | 107.60 | 100.3 | 99.5 | 6.76E+06 Avg Radiance [p/s/cm2/sr] | 4.23E+06 Avg Radiance [p/s/cm2/sr] |  |  |  | 0.60 | 1 | 5 | 5 | 5 | higher Fluc activity | higher knockdown activity
9 | CCCCCCCCC(CCCC)C(=O)OCCCCCCC(O)(CCCCCCOC(=O)C(CCCC)CCCCCCCC)CCCCOC(=O)C1CCN(C)CC1 (stereo not drawn) [CL15F 10-4] | 0.021 | 126.8 | 0.030 | 146.10 | 100.3 | 98.7 | 2.07E+06 Avg Radiance [p/s/cm2/sr] | 3.97E+06 Avg Radiance [p/s/cm2/sr] |  |  |  | 2.00 | 1 | 5 | 5 | 5 |  | 
10 | CCCCCCCCC(CCCCC)C(=O)OCCCCCCC(O)(CCCCCCOC(=O)C(CCCCC)CCCCCCCC)CCCCOC(=O)C1CCN(C)CC1 (stereo not drawn) [CL15F 10-5] | 0.003 | 111.7 | 0.047 | 113.90 | 100.5 | 99.4 | 2.70E+06 Avg Radiance [p/s/cm2/sr] | 7.55E+06 Avg Radiance [p/s/cm2/sr] |  |  | higher Fluc activity | 1.33 | 1 | 5 | 5 | 5 |  | 
